Read-outs that look alike come from different tables or passages of the source.
Experiments:
[1] = biological target: recombinant human Bcl-2 D103Y protein (Homo sapiens (Human), UniProt P10415, D103Y); experiment: Bcl-2-D103Y Biochemical Assay (TR-FRET); assay type: binding; settings: for IC50: TR-FRET, FITC labeled Bak peptide; for Ratio of Bcl-2 D103Y/Bcl-2 WT: ratio of IC50
Procedure, shortened: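 Recombinant human Bcl-2 D103Y binding to its ligand measured by TR-FRET (ex 337 nm, em 490/520 nm) with increasing compound concentrations. Percent inhibition from the 490/520 nm ratio; IC50 from four-parameter logistic fit.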

[2] = biological target: Recombinant human Bcl-2 protein (Homo sapiens (Human), UniProt P10415); experiment: Bcl-2 TR-FRET Assay; assay type: binding
Procedure, shortened: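 0.05 nM recombinant Bcl-2 preincubated 0.5 h at room temperature with 10-point compound dilutions (top final 1, 0.1, 0.02 or 0.01 uM) in pH 7.5 phosphate buffer. FITC-Bak peptide (0.5 nM) and anti-6His Tb cryptate then added for 1 h. TR-FRET read; IC50 from four-parameter logistic fit.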

Mouse PK Study = assay type: in vivo; settings: plasma, male CD-1 mouse
Experimental: Biological Example: Mouse PK Study
The pharmacokinetics of compounds were evaluated in male CD-1 mouse via Intravenous (dose of 1 mg/kg) and Oral Administration (dose of 10 mg/kg). For intravenous administration study, test compounds were dissolved in DMSO/EtOH/Cremophor EL/D5W (2.5/10/20/67.5, by volume) and injected with a 1 mg/kg dose via tail vein. For oral administration study, test compounds were dissolved in PEG400/Phosal 50 PG/EtOH (30/60/10, by volume) and administrated to mice at 10 mg/kg by gavage. Blood was collected into EDTA-K2 anticoagulant tube at 5 (IV only). 15, and 30 min and 1, 2, 4, 8 and 24 h after administration. Approximately 30 μL blood was collected at each time point. And then the blood was centrifuged at 3000 g for 5 min at 4° C. using a centrifuge to obtain the plasma. The plasma sample was transferred into a tube and stored in a freezer at approximately −20° C. until the determination of concentration by LC-MS/MS. Pharmacokinetic parameter were estimated by using WinNonlin software (version 8.1, Pharsight Corporation, CA, USA) with non-compartmental method. The following pharmacokinetic parameters were calculated, whenever possible from the plasma concentration-time data: CL, Vd, T1/2, AUClast, AUCinf for IV administration and Tmax, Cmax, AUClast, AUCinf, T1/2 for PO administration. All animals are free fed before experiment. For comparison purpose, the PK results of certain compounds in previous disclosure were obtained using the same methods.

[3] = test system: RS4;11 (BCL-2 dependent acute lymphoblastic leukemia cell line); experiment: RS4;11 Cell Proliferation Assay; assay type: cell-based; settings: Homo sapiens, RS4;11 cells, read-out: Cellular proliferation assay (IC50, nM) RS4
Procedure, shortened: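 RS4;11 cells, 50,000 per well in RPMI-1640 with 10% FBS, treated 48 h at 37 °C with a 10-point dilution series topping at 1 μM. Viability read by CellTiter-Glo ATP luminescence; mean IC50 reported.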

[4] = Bcl-2 wild type, TR-FRET, read-out: Biochemical assay (IC50, nM) Bcl-2 WT
[5] = wild type Bcl-2, unit inferred, read-out: Bcl-2 WT

Recombinant human Bcl-2 protein, sequence (P10415 whole entry): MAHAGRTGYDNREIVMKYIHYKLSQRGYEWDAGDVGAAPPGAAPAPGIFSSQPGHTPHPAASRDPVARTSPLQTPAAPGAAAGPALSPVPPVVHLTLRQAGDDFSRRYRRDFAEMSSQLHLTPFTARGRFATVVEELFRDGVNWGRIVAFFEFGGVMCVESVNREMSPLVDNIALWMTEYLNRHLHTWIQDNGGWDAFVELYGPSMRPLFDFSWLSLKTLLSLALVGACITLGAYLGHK
recombinant human Bcl-2 D103Y protein, sequence (P10415 whole entry D103Y): as the sequence (P10415 whole entry) above, with D103Y counted along it

COc1ccc(CN2CCN(C3CC4(CCN(c5ccc(C(=O)NS(=O)(=O)c6ccc(NCC7(F)CCOCC7)c([N+](=O)[O-])c6)c(Oc6cnc7[nH]ccc7c6)c5)CC4)C3)[C@H](c3ccccc3C(C)C)C2)cc1 (single isomer, unassigned) [Example 32, (R or S)-2-((1H-pyrrolo[2,3-b]pyridin-5-yl)oxy)-N-((4-(((4-fluorotetrahydro-2H-pyran-4-yl)methyl)amino)-3-nitrophenyl)sulfonyl)-4-(2-(2-(2-isopropylphenyl)-4-(4-methoxybenzyl)piperazin-1-yl)-7-azaspiro[3.5]nonan-7-yl)benzamide]
IC50 [1]: 0.11 nM
Ratio of Bcl-2 D103Y/Bcl-2 WT [1]: 1.1
IC50 [2, 4]: 0.096 nM
IC50 [2, 5]: 0.096 nM
AUC(0-t) (Mouse PK Study; Iv dosing (1 mg/kg)): 10500 ng·h/mL
Vd (Mouse PK Study; Iv dosing (1 mg/kg)): 0.48 L/kg
clearance (Mouse PK Study; Iv dosing (1 mg/kg)): 1.5 mL/min/kg
AUC(0-t) (Mouse PK Study; Po dosing (10 mg/kg)): 21200 ng·h/mL
Cmax (Mouse PK Study; Po dosing (10 mg/kg)): 1440 ng/mL
IC50 [3]: 0.18 nM

CC(C)c1ccccc1[C@@H]1CN(Cc2ccc(F)c(F)c2)CCN1C1CC2(CCN(c3ccc(C(=O)NS(=O)(=O)c4ccc(NC[C@H]5CC[C@](C)(O)CC5)c([N+](=O)[O-])c4)c(Oc4cnc5[nH]ccc5c4)c3)CC2)C1 (single isomer, unassigned) [Example 52a, 2-((1H-pyrrolo[2,3-b]pyridin-5-yl)oxy)-4-(2-((R or S)-4-(3,4-difluorobenzyl)-2-(2-isopropylphenyl)piperazin-1-yl)-7-azaspiro[3.5]nonan-7-yl)-N-((4-((((1r,4r)-4-hydroxy-4-methylcyclohexyl)methyl)amino)-3-nitrophenyl)sulfonyl)benzamide]
IC50 [1]: 0.37 nM
Ratio of Bcl-2 D103Y/Bcl-2 WT [1]: 2.4
IC50 [2, 4]: 0.16 nM
IC50 [2, 5]: 0.16 nM
AUC(0-t) (Mouse PK Study; Iv dosing (1 mg/kg)): 6510 ng·h/mL
Vd (Mouse PK Study; Iv dosing (1 mg/kg)): 0.62 L/kg
clearance (Mouse PK Study; Iv dosing (1 mg/kg)): 2.6 mL/min/kg
AUC(0-t) (Mouse PK Study; Po dosing (10 mg/kg)): 20700 ng·h/mL
Cmax (Mouse PK Study; Po dosing (10 mg/kg)): 2140 ng/mL
IC50 [3]: 0.25 nM

COc1ccc(CN2CCN(C3CC4(CCN(c5ccc(C(=O)NS(=O)(=O)c6ccc(NC[C@H]7CC[C@](C)(O)CC7)c([N+](=O)[O-])c6)c(Oc6cnc7[nH]ccc7c6)c5)CC4)C3)[C@H](c3ccccc3C(C)C)C2)cc1 [Example 19a, 2-((1H-pyrrolo[2,3-b]pyridin-5-yl)oxy)-N-((4-((((1r,4r)-4-hydroxy-4-methylcyclohexyl)methyl)amino)-3-nitrophenyl)sulfonyl)-4-(2-((R)-2-(2-isopropylphenyl)-4-(4-methoxybenzyl)piperazin-1-yl)-7-azaspiro[3.5]nonan-7-yl)benzamide]
IC50 [1]: 0.15 nM
ratio of Bcl-2 D103Y/Bcl-2 wt, compared with F91b in WO2019210828 ([1]; comparison in words): significantly lower
Ratio of Bcl-2 D103Y/Bcl-2 WT [1]: 2.6
IC50 [2, 4]: 0.057 nM
IC50 [2, 5]: 0.057 nM
AUC(0-t) (Mouse PK Study; Iv dosing (1 mg/kg)): 12300 ng·h/mL
Vd (Mouse PK Study; Iv dosing (1 mg/kg)): 0.48 L/kg
clearance (Mouse PK Study; Iv dosing (1 mg/kg)): 1.4 mL/min/kg
AUC(0-t) (Mouse PK Study; Po dosing (10 mg/kg)): 20000 ng·h/mL
Cmax (Mouse PK Study; Po dosing (10 mg/kg)): 1590 ng/mL
IC50 [3]: 0.15 nM

COc1cc(CN2CCN(C3CC4(C3)CN(c3ccc(C(=O)NS(=O)(=O)c5ccc(NC[C@H]6CC[C@](C)(O)CC6)c([N+](=O)[O-])c5)c(Oc5cnc6[nH]cc(F)c6c5)c3)C4)[C@H](c3ccccc3C(C)C)C2)ccc1C1CC1 [Example 232, 4-(6-((R)-4-(4-cyclopropyl-3-methoxybenzyl)-2-(2-isopropylphenyl)piperazin-1-yl)-2-azaspiro[3.3]heptan-2-yl)-2-((3-fluoro-1H-pyrrolo[2,3-b]pyridin-5-yl)oxy)-N-((4-((((1r,4r)-4-hydroxy-4-methylcyclohexyl)methyl)amino)-3-nitrophenyl)sulfonyl)benzamide]
IC50 [1]: 0.95 nM
Ratio of Bcl-2 D103Y/Bcl-2 WT [1]: 1.6
IC50 [2, 4]: 0.7 nM
IC50 [2, 5]: 0.59 nM
AUC(0-t) (Mouse PK Study; Iv dosing (1 mg/kg)): 14400 ng·h/mL
Vd (Mouse PK Study; Iv dosing (1 mg/kg)): 1.2 L/kg
clearance (Mouse PK Study; Iv dosing (1 mg/kg)): 1.2 mL/min/kg
AUC(0-t) (Mouse PK Study; Po dosing (10 mg/kg)): 18300 ng·h/mL
Cmax (Mouse PK Study; Po dosing (10 mg/kg)): 1090 ng/mL
IC50 [3]: 0.13 nM

COc1cc(CN2CCN(C3CC4(C3)CN(c3ccc(C(=O)NS(=O)(=O)c5ccc(NC[C@H]6CC[C@](C)(O)CC6)c([N+](=O)[O-])c5)c(Oc5cnc6[nH]ccc6c5)c3)C4)[C@H](c3ccccc3C(C)C)C2)ccc1C1CC1 [Example 233, 2-((1H-pyrrolo[2,3-b]pyridin-5-yl)oxy)-4-(6-((R)-4-(4-cyclopropyl-3-methoxybenzyl)-2-(2-isopropylphenyl)piperazin-1-yl)-2-azaspiro[3.3]heptan-2-yl)-N-((4-((((1r,4r)-4-hydroxy-4-methylcyclohexyl)methyl)amino)-3-nitrophenyl)sulfonyl)benzamide]
IC50 [1]: 0.83 nM
Ratio of Bcl-2 D103Y/Bcl-2 WT [1]: 1.9
IC50 [2, 4]: 0.43 nM
IC50 [2, 5]: 0.43 nM
AUC(0-t) (Mouse PK Study; Iv dosing (1 mg/kg)): 17200 ng·h/mL
Vd (Mouse PK Study; Iv dosing (1 mg/kg)): 0.8 L/kg
clearance (Mouse PK Study; Iv dosing (1 mg/kg)): 1 mL/min/kg
AUC(0-t) (Mouse PK Study; Po dosing (10 mg/kg)): 17400 ng·h/mL
Cmax (Mouse PK Study; Po dosing (10 mg/kg)): 1100 ng/mL
IC50 [3]: 0.13 nM

COc1cc(CN2CCN(C3CC4(C3)CN(c3ccc(C(=O)NS(=O)(=O)c5ccc(NC[C@H]6CC[C@](C)(O)CC6)c([N+](=O)[O-])c5)c(Oc5cnc6[nH]cc(F)c6c5)c3)C4)[C@H](c3ccccc3C(C)C)C2)cc2cc(C)oc12 [Example 338, 2-((3-fluoro-1H-pyrrolo[2,3-b]pyridin-5-yl)oxy)-N-((4-((((1r,4r)-4-hydroxy-4-methylcyclohexyl)methyl)amino)-3-nitrophenyl)sulfonyl)-4-(6-((R)-2-(2-isopropylphenyl)-4-((7-methoxy-2-methylbenzofuran-5-yl)methyl)piperazin-1-yl)-2-azaspiro[3.3]heptan-2-yl)benzamide]
IC50 [1]: 1 nM
Ratio of Bcl-2 D103Y/Bcl-2 WT [1]: 1.7
IC50 [2, 4]: 0.59 nM
IC50 [2, 5]: 0.59 nM
AUC(0-t) (Mouse PK Study; Iv dosing (1 mg/kg)): 42900 ng·h/mL
Vd (Mouse PK Study; Iv dosing (1 mg/kg)): 0.37 L/kg
clearance (Mouse PK Study; Iv dosing (1 mg/kg)): 0.4 mL/min/kg
AUC(0-t) (Mouse PK Study; Po dosing (10 mg/kg)): 11600 ng·h/mL
Cmax (Mouse PK Study; Po dosing (10 mg/kg)): 699 ng/mL
IC50 [3]: 0.11 nM

COc1cc(CN2CCN(C3CC4(C3)CN(c3ccc(C(=O)NS(=O)(=O)c5ccc(NC[C@H]6CC[C@](C)(O)CC6)c([N+](=O)[O-])c5)c(Oc5cnc6[nH]cc(F)c6c5)c3)C4)[C@H](c3ccccc3C(C)C)C2)ccc1N1CCOCC1 [Example 361, 2-((3-fluoro-1H-pyrrolo[2,3-b]pyridin-5-yl)oxy)-N-((4-((((1r,4r)-4-hydroxy-4-methylcyclohexyl)methyl)amino)-3-nitrophenyl)sulfonyl)-4-(6-((R)-2-(2-isopropylphenyl)-4-(3-methoxy-4-morpholinobenzyl)piperazin-1-yl)-2-azaspiro[3.3]heptan-2-yl) benzamide]
IC50 [1]: 0.079 nM
Ratio of Bcl-2 D103Y/Bcl-2 WT [1]: 1.6
IC50 [2, 4]: 0.051 nM
IC50 [2, 5]: 0.048 nM
IC50 [3]: 0.09 nM

Source: patent publication US20240376097A1, “BCL-2 Inhibitor” (BeiGene Ltd., priority 2020, published 2024)
